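Cells were grown in 96-well plates and exposed to each compound for 48 hours at five concentrations; endpoints were interpolated linearly between bracketing concentrations, or set to the highest concentration if not reached. At the GI50, growth is halved.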 The source made the active and inactive calls. Rule as the data show it: active = GI50 up to about 1.1 µM and inactive = higher.
How the values were obtained:
Test in all cases: DTP human tumour cell line panel, 48 h
COLO 205 = test system: COLO 205
HCC 2998 = test system: HCC 2998
HL-60 = test system: HL-60
HOP-62 = test system: HOP-62
HT-29 = test system: HT-29
K562 = test system: K562
KM12 = test system: KM12
M14 = test system: M14
MOLT-4 = test system: MOLT-4
NCI-H460 = test system: NCI-H460
NCI-H522 = test system: NCI-H522
OVCAR-3 = test system: OVCAR-3
RPMI-8226 = test system: RPMI-8226
RXF 393 = test system: RXF 393
SK-MEL-28 = test system: SK-MEL-28
SK-OV-3 = test system: SK-OV-3
SW-620 = test system: SW-620
UACC-257 = test system: UACC-257
UACC-62 = test system: UACC-62
UO-31 = test system: UO-31

Measured: GI50

O=C(O)CN(CC(=O)O)C(C(=O)O)c1ccccc1 (stereo not given)
inactive: COLO 205 > 100 µM | HCC 2998 > 100 µM | HL-60 > 100 µM | HOP-62 > 100 µM | HT-29 > 100 µM | K562 > 100 µM | KM12 > 100 µM | M14 > 100 µM | MOLT-4 > 100 µM | NCI-H460 > 100 µM | NCI-H522 > 100 µM | OVCAR-3 > 100 µM | RPMI-8226 > 100 µM | RXF 393 > 100 µM | SK-MEL-28 > 100 µM | SK-OV-3 > 100 µM | SW-620 > 100 µM | UACC-257 > 100 µM | UACC-62 > 100 µM | UO-31 > 100 µM

— ChEMBL document CHEMBL1201862, “PubChem BioAssay data set” (2004)
